The experiment deals with T1, human liver glycogen phosphorylase (Homo sapiens, UniProt P06737).
T1 construct: made in house; host or cells: Sf9 insect cells (suspension of disrupted cells, diluted in BES buffer, not purified)
T1 sequence (P06737 1-847): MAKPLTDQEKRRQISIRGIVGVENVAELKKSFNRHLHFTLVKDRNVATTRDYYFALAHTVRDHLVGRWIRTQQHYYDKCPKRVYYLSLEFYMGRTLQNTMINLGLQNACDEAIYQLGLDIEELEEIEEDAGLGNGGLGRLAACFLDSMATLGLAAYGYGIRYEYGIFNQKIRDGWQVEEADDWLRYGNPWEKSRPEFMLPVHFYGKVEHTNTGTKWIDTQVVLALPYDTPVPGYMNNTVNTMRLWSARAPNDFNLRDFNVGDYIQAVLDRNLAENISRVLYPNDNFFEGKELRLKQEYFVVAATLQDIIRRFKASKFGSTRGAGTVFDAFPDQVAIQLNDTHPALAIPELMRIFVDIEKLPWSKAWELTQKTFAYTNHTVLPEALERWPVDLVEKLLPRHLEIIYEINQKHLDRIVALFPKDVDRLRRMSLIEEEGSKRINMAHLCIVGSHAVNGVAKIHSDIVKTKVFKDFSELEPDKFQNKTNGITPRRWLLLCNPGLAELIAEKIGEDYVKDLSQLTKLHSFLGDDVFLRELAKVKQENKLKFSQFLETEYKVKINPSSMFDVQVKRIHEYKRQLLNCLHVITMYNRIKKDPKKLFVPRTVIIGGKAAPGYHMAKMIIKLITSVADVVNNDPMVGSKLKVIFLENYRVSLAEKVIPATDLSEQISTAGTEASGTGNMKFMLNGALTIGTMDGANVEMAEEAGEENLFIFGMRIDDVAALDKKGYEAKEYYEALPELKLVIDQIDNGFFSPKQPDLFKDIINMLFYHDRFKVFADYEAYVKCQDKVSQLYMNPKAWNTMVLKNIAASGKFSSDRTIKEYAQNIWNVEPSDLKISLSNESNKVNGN
Kind of experiment: Liver glycogen phosphorylase activity, forward reaction system (NADPH detection at 340 nm). The format is biochemical. The conditions noted are these: enzyme inhibitory activity against recombinant human liver glycogen phosphorylase (Sf9 cell lysate), room temperature, 75 minutes. In a few lines:
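Recombinant human liver glycogen phosphorylase from Sf9 lysate, run in forward direction with glycogen and phosphate substrate plus glucose, coupled via phosphoglucomutase/G6PDH to NADPH formation. BES buffer pH 6.8, room temperature, 75 min; A340 change minus blank gives activity. IC50 from percent inhibition vs DMSO control.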

Where a name gives a salt, the structure may show the parent alone. Where only a bound is given, the exact number is not on record here.

Take `CN(C)c1ccc(-c2nnc(CNC(=O)c3cc(NC(=O)c4cc(F)c(F)cc4Cl)[nH]n3)o2)cc1` [Example 1-54, 5-(2-chloro-4,5-difluoro-benzoylamino)-1H-pyrazole-3-carboxylic acid [5-(4-dimethylamino-phenyl)-[1,3,4]oxadiazol-2-ylmethyl]-amide]: the IC50 is below 100 nM.

Regarding `Cc1onc(-c2ccc(N(C)C)cc2)c1CNC(=O)c1cc(NC(=O)c2cc(F)c(F)cc2Cl)[nH]n1` [Example 1-15, 5-(2-chloro-4,5-difluoro-benzoylamino)-1H-pyrazole-3-carboxylic acid [3-(4-dimethylamino-phenyl)-5-methylisoxazol-4-ylmethyl]-amide], the IC50 is below 100 nM.

On to `Cc1ccc(-c2nc(C)c(CNC(=O)c3cc(NC(=O)c4cc(F)c(F)cc4Cl)[nH]n3)s2)s1` [Example 1-7, 5-(2-chloro-4,5-difluoro-benzoylamino)-1H-pyrazole-3-carboxylic acid [4-methyl-2-(5-methyl-thiophen-2-yl)-thiazol-5-ylmethyl]-amide], for which the IC50 was below 100 nM.

`Cc1cc(-c2onc(C)c2CNC(=O)c2cc(NC(=O)c3cc(F)c(F)cc3Cl)[nH]n2)no1` [Example 1-18, 5-(2-chloro-4,5-difluoro-benzoylamino)-1H-pyrazole-3-carboxylic acid (5,3′-dimethyl-[3,5′]biisoxazolyl-4′-ylmethyl)-amide]: the IC50 is below 100 nM.

In the case of `Cn1cccc1-c1nnc(CNC(=O)c2cc(NC(=O)c3cc(F)c(F)cc3Cl)[nH]n2)o1` [Example 1-75, 5-(2-chloro-4,5-difluoro-benzoylamino)-1H-pyrazole-3-carboxylic acid [5-(1-methyl-1H-pyrrol-2-yl)-[1,3,4]oxadiazol-2-ylmethyl]-amide], the IC50 was below 100 nM.

For `CC(=O)NCc1nc(C)c(CNC(=O)c2cc(NC(=O)c3cc(F)c(F)cc3Cl)[nH]n2)o1` [Example 3-12, 5-(2-chloro-4,5-difluoro-benzoylamino)-1H-pyrazole-3-carboxylic acid [2-(acetylamino-methyl)-4-methyl-oxazol-5-ylmethyl]-amide dihydrochloride], the IC50 was below 100 nM.

Turning to `O=C(O)c1cc(CNC(=O)c2cc(NC(=O)c3cc(F)c(F)cc3Cl)[nH]n2)on1` [Example 3-3, 5-(2-chloro-4,5-difluoro-benzoylamino)-1H-pyrazole-3-carboxylic acid (3-carboxy-isoxazol-5-ylmethyl)-amide], the IC50 was 100 to 300 nM.

As for `Cc1nc(C(=O)O)oc1CNC(=O)c1cc(NC(=O)c2cc(F)c(F)cc2Cl)[nH]n1` [Example 3-14, sodium 5-({[5-(2-chloro-4,5-difluoro-benzoylamino)-1H-pyrazole-3-carbonyl]-amino}-methyl)-4-methyl-oxazole-2-carboxylate], the IC50 is below 100 nM.

For the compound `COc1ccc(-c2nnsc2CNC(=O)c2cc(NC(=O)c3cc(F)c(F)cc3Cl)[nH]n2)cc1` [Example 1-69, 5-(2-chloro-4,5-difluoro-benzoylamino)-1H-pyrazole-3-carboxylic acid [4-(4-methoxy-phenyl)-[1,2,3]thiadiazol-5-ylmethyl]-amide], the IC50 was below 100 nM.

With `Cc1nc(C(=O)N2CCCCC2)oc1CNC(=O)c1cc(NC(=O)c2cc(F)c(F)cc2Cl)[nH]n1` [Example 3-15, 5-(2-chloro-4,5-difluoro-benzoylamino)-1H-pyrazole-3-carboxylic acid [4-methyl-2-(piperidine-1-carbonyl)-oxazol-5-ylmethyl]-amide], the IC50 is below 100 nM.

For `COc1ccc(Cc2nc(CNC(=O)c3cc(NC(=O)c4cc(F)c(F)cc4Cl)[nH]n3)n[nH]2)cc1OC` [Example 1-88, 5-(2-chloro-4,5-difluoro-benzoylamino)-1H-pyrazole-3-carboxylic acid [5-(3,4-dimethoxy-benzyl)-1H-[1,2,4]triazol-3-ylmethyl]-amide], the IC50 was below 100 nM.

With `O=C(NCc1nnc(Cc2ccccc2)o1)c1cc(NC(=O)c2cc(F)c(F)cc2Cl)[nH]n1` [Example 1-74, 5-(2-chloro-4,5-difluoro-benzoylamino)-1H-pyrazole-3-carboxylic acid (5-benzyl-[1,3,4]oxadiazol-2-ylmethyl)-amide], the IC50 was below 100 nM.

Regarding `Cc1nc(COC(=O)C2CCCCC2)c(CNC(=O)c2cc(NC(=O)c3cc(F)c(F)cc3Cl)[nH]n2)o1` [Example 3-23, 5-(2-chloro-4,5-difluoro-benzoylamino)-1H-pyrazole-3-carboxylic acid (4-cyclohexanecarbonyloxymethyl-2-methyl-oxazol-5-ylmethyl)-amide], the IC50 was below 100 nM.

With `CCOC(=O)COCc1nc(C)c(CNC(=O)c2cc(NC(=O)c3cc(F)c(F)cc3Cl)[nH]n2)o1` [Example 1-48, 5-(2-chloro-4,5-difluoro-benzoylamino)-1H-pyrazole-3-carboxylic acid (2-ethoxycarbonylmethoxymethyl-4-methyl-oxazol-5-ylmethyl)-amide], the IC50 was below 100 nM.

As to `O=C(NCc1nnc(-c2ccc(C(F)(F)F)cc2)o1)c1cc(NC(=O)c2cc(F)c(F)cc2Cl)[nH]n1` [Example 1-55, 5-(2-chloro-4,5-difluoro-benzoylamino)-1H-pyrazole-3-carboxylic acid [5-(4-trifluoromethyl-phenyl)-[1,3,4]oxadiazol-2-ylmethyl]-amide], the concentration for half-maximal inhibition (IC50) was above 300 nM.

`Cc1nc(C(=O)O)c(CNC(=O)c2cc(NC(=O)c3cc(F)c(F)cc3Cl)[nH]n2)o1` [Example 3-6, 5-(2-chloro-4,5-difluoro-benzoylamino)-1H-pyrazole-3-carboxylic acid (4-carboxy-2-methyl-oxazol-5-ylmethyl)-amide]: the IC50 is below 100 nM.

As for `Cc1nc(C23CC4CC(CC(C4)C2)C3)c(CNC(=O)c2cc(NC(=O)c3cc(F)c(F)cc3Cl)[nH]n2)s1` [Example 1-11, 5-(2-chloro-4,5-difluoro-benzoylamino)-1H-pyrazole-3-carboxylic acid (4-adamantan-1-yl-2-methyl-thiazol-5-ylmethyl)-amide], the IC50 was below 100 nM.

`CSCCc1oc(C)nc1CNC(=O)c1cc(NC(=O)c2cc(F)c(F)cc2Cl)[nH]n1` [Example 1-24, 5-(2-chloro-4,5-difluoro-benzoylamino)-1H-pyrazole-3-carboxylic acid [2-methyl-5-(2-methylsulfanyl-ethyl)-oxazol-4-ylmethyl]-amide]: the IC50 was below 100 nM.

`Cc1nc(COc2ccccc2)oc1CNC(=O)c1cc(NC(=O)c2cc(F)c(F)cc2Cl)[nH]n1` [Example 1-44, 5-(2-chloro-4,5-difluoro-benzoylamino)-1H-pyrazole-3-carboxylic acid (4-methyl-2-phenoxymethyl-oxazol-5-ylmethyl)-amide]: the IC50 was below 100 nM.

Regarding `Cc1ncc(CNC(=O)c2cc(NC(=O)c3cc(F)c(F)cc3Cl)[nH]n2)c(C2CC2)n1` [Example 1-68, 5-(2-chloro-4,5-difluoro-benzoylamino)-1H-pyrazole-3-carboxylic acid (4-cyclopropyl-2-methyl-pyrimidin-5-ylmethyl)-amide], the IC50 was below 100 nM.

For `O=C(NCc1cnc(C2CC2)nc1C1CC1)c1cc(NC(=O)c2cc(F)c(F)cc2Cl)[nH]n1` [Example 1-82, 5-[2-chloro-4,5-difluoro-benzoylamino)-1H-pyrazole-3-carboxylic acid (2,4-dicyclopropyl-pyrimidin-5-ylmethyl)-amide hydrochloride], the half-inhibitory concentration (IC50) was below 100 nM.

With `Cc1nc(COC(=O)c2ccccc2)c(CNC(=O)c2cc(NC(=O)c3cc(F)c(F)cc3Cl)[nH]n2)o1` [Example 3-5, 5-(2-chloro-4,5-difluoro-benzoylamino)-1H-pyrazole-3-carboxylic acid (4-benzoyloxymethyl-2-methyl-oxazol-5-ylmethyl)-amide], the IC50 is below 100 nM.

In the case of `O=C(NCc1nnc(-c2cccc(O)c2)o1)c1cc(NC(=O)c2cc(F)c(F)cc2Cl)[nH]n1` [Example 1-57, 5-(2-chloro-4,5-difluoro-benzoylamino)-1H-pyrazole-3-carboxylic acid [5-(3-hydroxy-phenyl)-[1,3,4]oxadiazol-2-ylmethyl]-amide], the IC50 was below 100 nM.

`CCN(CC)S(=O)(=O)c1ccsc1CNC(=O)c1cc(NC(=O)c2cc(F)c(F)cc2Cl)[nH]n1` [Example 1-2, 5-(2-chloro-4,5-difluoro-benzoylamino)-1H-pyrazole-3-carboxylic acid (3-diethylsulfamoyl-thiophen-2-ylmethyl)-amide]: the IC50 lay in the range of 100 to 300 nM.

As to `Cc1ncc(CNC(=O)c2cc(NC(=O)c3cc(F)c(F)cc3Cl)[nH]n2)c(-c2cccc(F)c2)n1` [Example 1-79, 5-(2-chloro-4,5-difluoro-benzoylamino)-1H-pyrazole-3-carboxylic acid [4-(3-fluoro-phenyl)-2-methyl-pyrimidin-5-ylmethyl]-amide], the IC50 was below 100 nM.

In general, IC50 refers to the midpoint of a concentration-inhibition curve.

The values above are taken from patent US20090036450A1, “PYRAZOLE COMPOUNDS AND USE THEREOF” (JAPAN TOBACCO, INC., priority 2006, published 2009).
